{"source": "patent US20110311613A1", "about": "“TOPICAL FORMULATIONS OF FLAP INHIBITORS FOR THE TREATMENT OF DERMATOLOGICAL CONDITIONS” (AMIRA PHARMACEUTICAL, INC., priority 2008, published 2011)", "key": {"[1]": {"assay": "Solubility in topical formulation (75% propylene glycol, 15% transcutol, 10% water)", "assay_type": "physicochemical", "conditions": "aqueous with cosolvent or surfactant or cyclodextrin, solution of 75% propylene glycol, read-out: soluble in topical formulation", "method": "In one aspect, a topical formulation of a FLAP inhibitor compound is prepared by mixing a FLAP inhibitor compound with propylene glycol, transcutol and water. In one aspect, the topical formulation includes a FLAP inhibitor compound (10 mg/mL) in a solution of 75% propylene glycol, 15% transcutol, 10% water.\nUsing this formulation, the following FLAP inhibitor compounds are all soluble at 10 mg/mL: Compound A (Na salt), Compound B (Na salt), Compound C (acid and Na salt), Compound F (Na salt), Compound G (Na salt), Compound I (acid), and Compound J (Na salt)."}, "[2]": {"test_system": "Male Sprague Dawley Rats", "assay": "Rat abraded skin model, acute irritancy (Draize scoring) following dermal administration", "assay_type": "in vivo", "conditions": "2 mL of 10 mg/mL solution on abraded skin, occluded 24 hours; erythema, edema scored at 24, 48 and 72 hours; each animal", "method": "(§1) Male Sprague Dawley Rats (n=3 per group) were shaved on the back such that approximately 20% of the body area surface was exposed. The shaved skin was mildly abraded then 2 mL of a 10 mg/mL solution of the test compound in a formulation containing 75% propylene glycol, 15% transcutol, 10% water was applied to the abraded skin. The site of administration was occluded for 24 hours after which time the skin was cleansed of excess material (if any). Plasma samples were drawn from each rat at 2, 4, 24 and 72 hours.\nVisual analysis of erythema, edema or other dermal findings were recorded prior to dosing then at 24, 48 and 72 hours. Scoring followed a Draize protocol."}, "[3]": {"test_system": "cysteinyl leukotriene (CysLT)", "assay": "Mouse arachidonic acid-induced ear inflammation model, leukotriene analysis (EIA) of CysLT", "assay_type": "in vivo", "method": "(§2) A mouse arachidonic acid (AA)—induced ear inflammation model was utilized to determine the extent of inhibition of ear swelling and leukotriene (LT) production by oral and topical application of a 5-lipoxygenase-activating protein (FLAP) inhibitor. Methods were adapted from Byrum et al., J Exp Med. 1997 Mar. 17; 185(6):1065-75).\n(§3) Female CD-1 mice (weighing 18-20 grams) were administered compound orally (30 mg/kg in 10 ml/kg of 0.5% methylcellulose vehicle) or topically at concentrations of 0.01-10% by weight to the experimental ear and vehicle was applied to the opposite control ear. Four hours following compound administration a […] aliquot of a 4 mg/ml solution of AA in ethanol was applied to the experimental (right) ear and vehicle (ethanol) was applied to the control (left) ear. Thirty minutes later mice were placed into an enclosed Plexiglas chamber and exposed to CO2 for a period of 1-2 minutes or until breathing ceased. Ear biopsies were then taken for assessment of inflammation and leukotriene levels.\n(§4) The ear punch was placed into a tris buffer containing 0.01% triton x and homogenized using a polytron probe homogenizer. The sample was then centrifuged at 10,000×g for 10 minutes at 4° C. Leukotriene B4 (LTB4) and cysteinyl leukotriene (CysLT) concentrations in the supernatant were determined by enzyme-immunoassay (EIA)."}, "[4]": {"test_system": "Leukotriene B4 (LTB4)", "assay": "Mouse arachidonic acid-induced ear inflammation model, leukotriene analysis (EIA) of LTB4", "assay_type": "in vivo", "method": "as §2, §3, §4"}, "[5]": {"test_system": "arachidonic acid-induced ear inflammation", "assay": "Mouse arachidonic acid-induced ear inflammation model, ear inflammation (ear punch weight)", "assay_type": "in vivo", "method": "as §2, §3\nAn eight mm ear punch was taken from a similar location of each experimental ear and each control ear and weighed. The extent of inflammation was determined by the difference in weight between the experimental ear and control ear [experimental ear (mg)-control ear (mg)]. A typical response for this assay is in the range of 4 and 12 mg increase in weight. Ear punches were then frozen for later assessment of leukotrienes."}, "[6]": {"assay": "Rat abraded skin model, skin penetration (plasma levels) following dermal administration", "assay_type": "in vivo", "conditions": "for plasma levels (PK analysis): abraded skin, samples at 2, 4, 24 and 72 hours; for concentration at 24 h: male, Sprague Dawley, plasma, topical, 20 mg, 2 mL of 10 mg/mL solution on abraded skin, occluded 24 hours, read-out: plasma levels at the 24 hour time point", "method": "as §1"}, "[7]": {"conditions": "mouse, in vivo, 10 mg/kg", "quoted_text": "(§5) BALB/c mice were divided into groups and acclimatized in cages for 24 hours (day 0). The control group was exposed to air and the test group was exposed to smoke from seven unfiltered cigarettes per day for 8 days (day 1 to day 8). […] On day 14, bronchioalveolar lavage fluid (BALF) is tested for influx of cells, cytokines, chemokines (e.g., KC, IL-17, MIP-2, IL-6), mucin, and/or proteins. Lung histology is also examined."}, "[8]": {"assay": "Trough plasma concentration in subchronic smoking mouse model", "conditions": "BALB/c mice, combination DP2 receptor antagonist + FLAP inhibitor", "quoted_text": "as §5"}}, "note": "Like-named read-outs stand apart in the source and are kept apart here."}
{"smiles": "COc1cnc(-c2ccc(Cn3c(CC(C)(C)C(=O)O)c(SC(C)(C)C)c4cc(OCc5ccc(C)cn5)ccc43)cc2)nc1", "note": "[Compound A, 3-[3-tert-Butylsulfanyl-1-[4-(5-methoxy-pyrimidin-2-yl)-benzyl]-5-(5-methyl-pyridin-2-ylmethoxy)-1H-indol-2-yl]-2,2-dimethyl-propionic acid]", "values": [{"measurement": "solubility", "setting": "[1]", "result": "≥ 10000", "unit": "µg/mL"}, {"measurement": "Draize score", "setting": "[2]", "result": 0}, {"measurement": "reduction of CysLT levels", "setting": "[3]; applied dermally 4 hours prior to AA treatment (FIG. 3C)", "result": "about 37%"}, {"measurement": "reduction of CysLT levels", "setting": "[3]; oral, 30 mg/kg, 4 hours prior to AA treatment (FIG. 2C)", "result": "about 57%"}, {"measurement": "reduction of LTB4 levels", "setting": "[4]; applied dermally 4 hours prior to AA treatment (FIG. 3B)", "result": "about 55%"}, {"measurement": "reduction of LTB4 levels", "setting": "[4]; oral, 30 mg/kg, 4 hours prior to AA treatment (FIG. 2B)", "result": "about 33%"}, {"measurement": "reduction of inflammation by measure of change in ear weight", "setting": "[5]; applied dermally 4 hours prior to AA treatment (FIG. 3A)", "result": "about 60%"}, {"measurement": "reduction of inflammation by measure of change in ear weight", "setting": "[5]; oral, 30 mg/kg, 4 hours prior to AA treatment (FIG. 2A)", "result": "about 65%"}, {"measurement": "topical concentration of maximal activity", "setting": "[5]; topical concentrations of 0.01-10%, all three endpoints (ear weight, LTB4, CysLT)", "result": 0.1, "unit": "%"}, {"measurement": "plasma levels (PK analysis)", "setting": "[6]", "result": "measurable plasma levels"}, {"measurement": "concentration at 24 h", "setting": "[6]", "result": "< 110", "unit": "ng/mL"}]}
{"smiles": "COc1cnc(-c2ccc(Cn3c(CC(C)(C)C(=O)O)c(SC(C)(C)C)c4cc(OCc5cnc(C)cn5)ccc43)cc2)nc1", "note": "[Compound B, 3-[3-tert-Butylsulfanyl-1-[4-(5-methoxy-pyrimidin-2-yl)-benzyl]-5-(5-methyl-pyrazin-2-ylmethoxy)-1H-indol-2-yl]-2,2-dimethyl-propionic acid]", "values": [{"measurement": "solubility", "setting": "[1]", "result": "≥ 10000", "unit": "µg/mL"}, {"measurement": "Draize score", "setting": "[2]", "result": 0}, {"measurement": "plasma levels (PK analysis)", "setting": "[6]", "result": "measurable plasma levels"}, {"measurement": "concentration at 24 h", "setting": "[6]", "result": "< 110", "unit": "ng/mL"}]}
{"smiles": "COc1cnc(-c2ccc(Cn3c(CC(C)(C)C(=O)O)c(SC(C)(C)C)c4cc(OC[C@@H]5Cc6ccccc6N5C(C)=O)ccc43)cc2)nc1", "note": "[Compound C, 3-{5-((S)-1-Acetyl-2,3-dihydro-1H-indol-2-ylmethoxy)-3-tert-butylsulfanyl-1-[4-(5-methoxy-pyrimidin-2-yl)-benzyl]-1H-indol-2-yl}-2,2-dimethyl-propionic acid]", "values": [{"measurement": "solubility", "setting": "[1]", "result": "≥ 10000", "unit": "µg/mL"}, {"measurement": "Draize score", "setting": "[2]", "result": 0}, {"measurement": "plasma levels (PK analysis)", "setting": "[6]", "result": "measurable plasma levels"}, {"measurement": "concentration at 24 h", "setting": "[6]", "result": "< 110", "unit": "ng/mL"}]}
{"smiles": "CC(C)(C)Sc1c(CC(C)(C)C(=O)O)n(Cc2ccc(-c3ccc(F)cn3)cc2)c2ccc(OCc3ccc4ccccc4n3)cc12", "note": "[Compound F, 3-[3-tert-Butylsulfanyl-1-[4-(5-fluoro-pyridin-2-yl)-benzyl]-5-(quinolin-2-ylmethoxy)-1H-indol-2-yl]-2,2-dimethyl-propionic acid]", "values": [{"measurement": "solubility", "setting": "[1]", "result": "≥ 10000", "unit": "µg/mL"}, {"measurement": "Draize score", "setting": "[2]", "result": 0}, {"measurement": "plasma levels (PK analysis)", "setting": "[6]", "result": "measurable plasma levels"}, {"measurement": "concentration at 24 h", "setting": "[6]", "result": "< 110", "unit": "ng/mL"}]}
{"smiles": "CCC(CC)(Cc1c(SC(C)(C)C)c2cc(OCc3ccc(C)cn3)ccc2n1Cc1ccc(-c2ncc(OC)cn2)cc1)C(=O)O", "note": "[Compound G, 2-[3-tert-Butylsulfanyl-1-[4-(5-methoxy-pyrimidin-2-yl)-benzyl]-5-(5-methyl-pyridin-2-ylmethoxy)-1H-indol-2-ylmethyl]-2-ethyl-butyric acid]", "values": [{"measurement": "solubility", "setting": "[1]", "result": "≥ 10000", "unit": "µg/mL"}, {"measurement": "Draize score", "setting": "[2]", "result": 0}, {"measurement": "plasma levels (PK analysis)", "setting": "[6]", "result": "measurable plasma levels"}, {"measurement": "concentration at 24 h", "setting": "[6]", "result": "< 110", "unit": "ng/mL"}]}
{"smiles": "CC(=O)N1CCC[C@H]1COc1ccc2c(c1)c(SC(C)(C)C)c(CC(C)(C)C(=O)O)n2Cc1ccc(Cl)cc1", "note": "[Compound I, 3-[5-((S)-1-Acetyl-pyrrolidin-2-ylmethoxy)-3-tert-butylsulfanyl-1-(4-chloro-benzyl)-1H-indol-2-yl]-2,2-dimethyl-propionic acid]", "values": [{"measurement": "solubility", "setting": "[1]", "result": "≥ 10000", "unit": "µg/mL"}, {"measurement": "Draize score", "setting": "[2]", "result": 0}, {"measurement": "plasma levels (PK analysis)", "setting": "[6]", "result": "measurable plasma levels"}, {"measurement": "concentration at 24 h", "setting": "[6]", "result": "< 110", "unit": "ng/mL"}]}
{"smiles": "CC(C)(C)Sc1c(CC(C)(C)C(=O)O)n(Cc2ccc(-c3ccc(F)cn3)cc2)c2ccc(OCc3ccccn3)cc12", "note": "[Compound J, 3-[3-tert-butylsulfanyl-1-[4-(5-fluoro-pyridin-2-yl)-benzyl]-5-(pyridin-2-ylmethoxy)-1H-indol-2-yl]-2,2-dimethyl-propionic acid]", "values": [{"measurement": "solubility", "setting": "[1]", "result": "≥ 10000", "unit": "µg/mL"}, {"measurement": "Draize score", "setting": "[2]", "result": 0}, {"measurement": "plasma levels (PK analysis)", "setting": "[6]", "result": "measurable plasma levels"}, {"measurement": "concentration at 24 h", "setting": "[6]", "result": "< 110", "unit": "ng/mL"}]}
{"smiles": "CCN(Cc1cc(C(F)(F)F)ccc1-c1cncc(CC(=O)O)c1)C(=O)OCc1ccccc1", "note": "[DP2 receptor antagonist]", "values": [{"measurement": "Plasma concentration @ trough", "setting": "[7]", "result": "<10", "unit": "nM"}]}
{"smiles": "COc1ccc(-c2ccc(Cn3c(CC(C)(C)C(=O)O)c(SC(C)(C)C)c4cc(OCc5ccc(C)cn5)ccc43)cc2)cn1", "note": "[FLAP inhibitor, 3-(3-(tert-butylthio)-1-(4-(6-methoxypyridin-3-yl)benzyl)-5-((5-methylpyridin-2-yl)methoxy)-1H-indol-2-yl)-2,2-dimethylpropanoic acid]", "values": [{"measurement": "Plasma concentration @ trough", "setting": "[8]", "result": "136 (FLAP inhibitor) nM"}]}
